{
  "source": "patent US20240025906A1",
  "about": "(NEURON23, INC., priority 2022, published 2024)",
  "key": {"TYK2 JH2": {"target": "T1, TYK2 JH2 (Homo sapiens, UniProt P29597)", "T1 construct": "purchased DiscoverX (KINOMEscan KdELECT service); host or cells: E. coli BL21-derived (T7 phage display) or HEK-293", "T1 sequence (P29597 589-875 limits assumed)": "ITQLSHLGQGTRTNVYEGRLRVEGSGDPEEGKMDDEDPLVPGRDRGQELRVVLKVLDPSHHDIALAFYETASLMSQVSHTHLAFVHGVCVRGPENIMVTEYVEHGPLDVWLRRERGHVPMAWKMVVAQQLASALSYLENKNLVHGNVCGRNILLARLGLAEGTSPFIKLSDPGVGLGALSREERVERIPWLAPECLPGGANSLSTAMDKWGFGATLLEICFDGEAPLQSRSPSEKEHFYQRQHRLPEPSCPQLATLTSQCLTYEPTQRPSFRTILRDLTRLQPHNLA", "test": "TYK2 JH2 binding assay (KINOMEscan KdELECT competitive binding)", "conditions": "TYK2 JH2 domain", "how_it_was_run": "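Test compounds were titrated in 11 three-fold steps against JH2 fragment captured on ligand-loaded magnetic beads, with 1 h incubation at room temperature and DMSO at 0.9%. Eluted kinase was quantified by qPCR, and Kd was fitted from the dose series.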"}, "[1]": {"tested_on": "JAK1/TYK2 pSTAT5 (Tyr694/699) in THP-1 cell line", "test": "IFNa-stimulated JAK1/TYK2 pSTAT5 (Tyr694/699) inhibition cellular assay, AlphaLISA", "format": "cell-based", "conditions": "THP-1 cells, AlphaLISA (Assay B)", "how_it_was_run": "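pSTAT5 (Tyr694/699) in lysates quantified by AlphaLISA (615 nm) after 30 min IFNa stimulation (100 ng/mL stock) of THP-1 cells. The cells, 2e4 per well in HBSS, had first been exposed 1 h at 37° C. to eight 6-fold compound dilutions, 10000 down to 0.04 nM final. IC50 fitted by 4PL regression, bottom 0, Hill slope −1.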"}, "[2]": {"conditions": "KINOMEscan KdELECT (Assay A), read-out: Biochemical TYK2_DiscoverX_JH2_BND_Kd"}, "[3]": {"conditions": "Homo sapiens, IFNa-stimulated, read-out: Cellular_THP1_IFNa-pSTATS_TYK2"}, "[4]": {"conditions": "DiscoverX KINOMEscan KdELECT (Assay A), read-out: Biochemical TYK2_DiscoverX_JH2_BND_Kd"}, "[5]": {"conditions": "KINOMEscan KdELECT (Assay A), read-out: Biochemical TYK2_JH2_Kd"}, "[6]": {"conditions": "Homo sapiens, IFNa-stimulated, read-out: Cellular THP1_IFNa-pSTATS_IC50"}},
  "note": "Read-outs that look alike come from different tables or passages of the source.",
  "data": [
    {"smiles": "CNc1ncc(C#Cc2ccncn2)c2cc(NC(=O)C3CC3)ncc12", "note": "[Example 599, N-(8-(methylamino)-5-(pyrimidin-4-ylethynyl)-2,7-naphthyridin-3-yl)cyclopropanecarboxamide]", "values": [
      {"measurement": "Kd", "setting": "TYK2 JH2; [2]", "result": "≤ 100", "unit": "nM"},
      {"measurement": "IC50", "setting": "[1]; [3]", "result": "≤ 500", "unit": "nM"}
    ]},
    {"smiles": "CNc1ncc(-c2nc3ccc(N4CCC(F)(F)CC4)cn3n2)c2cc(NC(=O)[C@H]3C[C@H]3C)ncc12", "note": "[Example 558, (1S,2R)—N-(5-(6-(4,4-difluoropiperidin-1-yl)-[1,2,4]triazolo[1,5-a]pyridin-2-yl)-8-(methylamino)-2,7-naphthyridin-3-yl)-2-methylcyclopropane-1-carboxamide]", "values": [
      {"measurement": "Kd", "setting": "TYK2 JH2; [4]", "result": "≤ 100", "unit": "nM"},
      {"measurement": "IC50", "setting": "[1]; [3]", "result": "≤ 500", "unit": "nM"}
    ]},
    {"smiles": "CNc1ncc(C2CC2)c2cc(NC(=O)C3CC3)ncc12", "note": "[Example 28, N-(5-cyclopropyl-8-(methylamino)-2,7-naphthyridin-3-yl)cyclopropanecarboxamide]", "values": [
      {"measurement": "Kd", "setting": "TYK2 JH2; [5]", "result": "≤ 100", "unit": "nM"},
      {"measurement": "IC50", "setting": "[1]; [6]", "result": "> 500", "unit": "nM"}
    ]},
    {"smiles": "CNc1ncc(-c2nc3cc(N4CCOCC4)ccc3o2)c2cc(NC(=O)[C@@H]3C[C@@H]3F)ncc12", "note": "[Example 424, (1S,2S)-2-fluoro-N-(8-(methylamino)-5-(5-morpholinobenzo[d]oxazol-2-yl)-2,7-naphthyridin-3-yl)cyclopropane-1-carboxamide]", "values": [
      {"measurement": "Kd", "setting": "TYK2 JH2; [4]", "result": "≤ 100", "unit": "nM"},
      {"measurement": "IC50", "setting": "[1]; [3]", "result": "≤ 500", "unit": "nM"}
    ]},
    {"smiles": "CNc1ncc(-c2nc3cc(N4CC(C)(C)C4)ccc3o2)c2cc(NC(=O)C3CC3)ncc12", "note": "[Example 288, N-(5-(5-(3,3-dimethylazetidin-1-yl)benzo[d]oxazol-2-y1)-8-(methylamino)-2,7-naphthyridin-3-yl)cyclopropanecarboxamide]", "values": [
      {"measurement": "Kd", "setting": "TYK2 JH2; [4]", "result": "≤ 100", "unit": "nM"},
      {"measurement": "IC50", "setting": "[1]; [3]", "result": "≤ 500", "unit": "nM"}
    ]},
    {"smiles": "CNc1ncc(-c2nc3ccc(N4CC5CC(CN(C)C5)C4)cn3n2)c2cc(NC(=O)C3CC3)ncc12", "note": "[Example 502, N-(5-(6-(7-methyl-3,7-diazabicyclo[3.3.1]nonan-3-yl)-[1,2,4]triazolo[1,5-a]pyridin-2-yl)-8-(methylamino)-2,7-naphthyridin-3-yl)cyclopropanecarboxamide]", "values": [
      {"measurement": "Kd", "setting": "TYK2 JH2; [4]", "result": "≤ 100", "unit": "nM"},
      {"measurement": "IC50", "setting": "[1]; [3]", "result": "≤ 500", "unit": "nM"}
    ]},
    {"smiles": "CNc1ncc(-c2nc3ccc(N4CCOC(C(C)(C)F)C4)cn3n2)c2cc(NC(=O)C3CC3)ncc12", "note": "(single isomer, unassigned) [Example 1050]", "values": [
      {"measurement": "Kd", "setting": "TYK2 JH2; [2]", "result": "≤ 100", "unit": "nM"},
      {"measurement": "IC50", "setting": "[1]; IFNa-stimulated pSTAT5 (Tyr694/699), read-out: Cellular_THP1_IFNa-pSTATS_TYK2", "result": "≤ 500", "unit": "nM"}
    ]},
    {"smiles": "CNc1ncc(-c2nc3ccc(N4CCOCC4)cn3n2)c2cc(NC(=O)[C@@H]3C[C@@H]3C(F)F)ncc12", "note": "(single isomer, unassigned) [Example 535]", "values": [
      {"measurement": "Kd", "setting": "TYK2 JH2; [4]", "result": "≤ 100", "unit": "nM"},
      {"measurement": "IC50", "setting": "[1]; [3]", "result": "≤ 500", "unit": "nM"}
    ]},
    {"smiles": "CNc1ncc(-c2ccccc2)c2cc(NC(=O)C3(C)CC3)ncc12", "note": "[Example 101, 1-methyl-N-(8-(methylamino)-5-phenyl-2,7-naphthyridin-3-yl)cyclopropane-1-carboxamide]", "values": [
      {"measurement": "Kd", "setting": "TYK2 JH2; [5]", "result": "≤ 100", "unit": "nM"},
      {"measurement": "IC50", "setting": "[1]; [6]", "result": "> 500", "unit": "nM"}
    ]},
    {"smiles": "CNc1ncc(-c2ccc(Oc3ccccn3)cc2)c2cc(NC(=O)C3CC3)ncc12", "note": "[Example 863, N-(8-(methylamino)-5-(4-(pyridin-2-yloxy)phenyl)-2,7-naphthyridin-3-yl)cyclopropanecarboxamide]", "values": [
      {"measurement": "Kd", "setting": "TYK2 JH2; [2]", "result": "≤ 100", "unit": "nM"},
      {"measurement": "IC50", "setting": "[1]; [3]", "result": "≤ 500", "unit": "nM"}
    ]},
    {"smiles": "CNc1ncc(-c2nc3cc(OC)ccc3o2)c2cc(NC(=O)C3(O)CC3)ncc12", "note": "[Example 404, 1-hydroxy-N-(5-(5-methoxybenzo[d]oxazol-2-yl)-8-(methylamino)-2,7-naphthyridin-3-yl)cyclopropane-1-carboxamide]", "values": [
      {"measurement": "Kd", "setting": "TYK2 JH2; [4]", "result": "≤ 100", "unit": "nM"},
      {"measurement": "IC50", "setting": "[1]; [3]", "result": "≤ 500", "unit": "nM"}
    ]},
    {"smiles": "CNc1ncc(-c2ccccn2)c2cc(NC(=O)C3CC3)ncc12", "note": "[Example 4, N-(8-(methylamino)-5-(pyridin-2-yl)-2,7-naphthyridin-3-yl)cyclopropanecarboxamide]", "values": [
      {"measurement": "Kd", "setting": "TYK2 JH2; [5]", "result": "≤ 100", "unit": "nM"},
      {"measurement": "IC50", "setting": "[1]; [6]", "result": "> 500", "unit": "nM"}
    ]},
    {"smiles": "CNc1ncc(-c2nc3cc(N4CCO[C@H](C(F)F)C4)ccc3o2)c2cc(NC(=O)C3CC3)ncc12", "note": "(single isomer, unassigned) [Example 935]", "values": [
      {"measurement": "Kd", "setting": "TYK2 JH2; [2]", "result": "≤ 100", "unit": "nM"},
      {"measurement": "IC50", "setting": "[1]; [3]", "result": "≤ 500", "unit": "nM"}
    ]},
    {"smiles": "CNc1ncc(-c2ncccc2OC)c2cc(Nc3ccccn3)ncc12", "note": "[Example 91, 4-(3-methoxypyridin-2-yl)-N^1-methyl-N^6-(pyridin-2-yl)-2,7-naphthyridine-1,6-diamine]", "values": [
      {"measurement": "Kd", "setting": "TYK2 JH2; [5]", "result": "100 to 1000", "unit": "nM"},
      {"measurement": "IC50", "setting": "[1]; [6]", "result": "> 500", "unit": "nM"}
    ]}
  ]
}
